Test results taken from ChEMBL document CHEMBL3132769, “Fragment growing to retain or alter the selectivity of anchored kinase hinge-binding fragments” (Medchemcomm, 2014).

Tests used:
[1] = biological target: T1, Mitogen-activated protein kinase 12 (Homo sapiens) (UniProt P53778); test: Inhibition of human full length p38 gamma expressed in Escherichia coli cell assessed as substrate phosphorylation using fluorescence-labelled peptides as substrate at 420 uM after 90 mins by microfluidic peptide phosphorylation assay
T1 sequence (whole entry): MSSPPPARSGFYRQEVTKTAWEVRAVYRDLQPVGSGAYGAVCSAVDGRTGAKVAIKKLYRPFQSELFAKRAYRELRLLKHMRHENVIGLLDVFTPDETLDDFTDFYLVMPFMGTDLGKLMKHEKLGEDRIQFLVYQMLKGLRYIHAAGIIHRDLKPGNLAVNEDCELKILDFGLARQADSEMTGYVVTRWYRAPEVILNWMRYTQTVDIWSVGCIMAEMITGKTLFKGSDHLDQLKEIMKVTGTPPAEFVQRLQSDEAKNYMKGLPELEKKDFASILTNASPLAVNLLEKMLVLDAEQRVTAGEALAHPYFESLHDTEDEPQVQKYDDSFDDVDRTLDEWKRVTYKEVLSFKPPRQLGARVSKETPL

[2] = biological target: T2, cGMP-dependent protein kinase 1 (Homo sapiens) (UniProt Q13976); test: Inhibition of human full length PKG-1beta expressed in baculovirus assessed as substrate phosphorylation using fluorescence-labelled peptides as substrate at 420 uM after 90 mins by microfluidic peptide phosphorylation assay
T2 sequence (whole entry): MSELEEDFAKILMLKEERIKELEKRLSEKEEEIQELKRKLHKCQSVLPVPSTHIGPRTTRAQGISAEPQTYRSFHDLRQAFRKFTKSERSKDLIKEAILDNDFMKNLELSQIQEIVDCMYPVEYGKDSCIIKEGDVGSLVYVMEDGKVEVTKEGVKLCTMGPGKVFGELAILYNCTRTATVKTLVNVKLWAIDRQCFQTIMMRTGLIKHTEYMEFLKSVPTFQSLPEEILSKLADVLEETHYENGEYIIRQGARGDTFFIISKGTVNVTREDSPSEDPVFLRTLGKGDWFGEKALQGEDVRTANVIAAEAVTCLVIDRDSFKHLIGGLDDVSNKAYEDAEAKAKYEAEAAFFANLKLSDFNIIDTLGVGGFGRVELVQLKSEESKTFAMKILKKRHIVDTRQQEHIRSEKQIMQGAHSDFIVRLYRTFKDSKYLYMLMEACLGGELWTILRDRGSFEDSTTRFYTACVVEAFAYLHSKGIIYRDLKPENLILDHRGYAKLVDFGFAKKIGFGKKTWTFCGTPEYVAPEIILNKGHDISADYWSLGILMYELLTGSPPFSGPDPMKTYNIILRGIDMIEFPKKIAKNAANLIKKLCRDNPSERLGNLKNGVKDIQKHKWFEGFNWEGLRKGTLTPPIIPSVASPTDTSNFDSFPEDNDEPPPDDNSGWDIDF

[3] = biological target: T3, Serine/threonine-protein kinase Sgk3 (Homo sapiens) (UniProt Q96BR1); test: Inhibition of human full length SGK3 expressed in baculovirus assessed as substrate phosphorylation using fluorescence-labelled peptides as substrate at 0.2 uM after 90 mins by microfluidic peptide phosphorylation assay
T3 sequence (whole entry): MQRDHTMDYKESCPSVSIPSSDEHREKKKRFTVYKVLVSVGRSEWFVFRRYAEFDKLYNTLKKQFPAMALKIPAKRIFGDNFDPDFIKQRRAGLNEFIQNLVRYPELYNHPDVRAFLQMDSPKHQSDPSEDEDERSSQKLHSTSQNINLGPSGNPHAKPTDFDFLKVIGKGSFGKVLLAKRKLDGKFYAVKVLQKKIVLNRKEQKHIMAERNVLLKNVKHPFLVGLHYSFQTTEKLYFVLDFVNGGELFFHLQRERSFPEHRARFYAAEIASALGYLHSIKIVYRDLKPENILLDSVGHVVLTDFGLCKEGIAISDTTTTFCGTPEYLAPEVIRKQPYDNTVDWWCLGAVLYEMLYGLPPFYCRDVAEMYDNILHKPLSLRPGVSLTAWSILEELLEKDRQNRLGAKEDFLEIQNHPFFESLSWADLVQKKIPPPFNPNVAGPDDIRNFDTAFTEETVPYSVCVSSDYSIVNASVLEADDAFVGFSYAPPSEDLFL

[4] = biological target: Tyrosine-protein kinase HCK (Homo sapiens) (UniProt P08631); test: Inhibition of human HCK catalytic domain expressed in baculovirus assessed as substrate phosphorylation using fluorescence-labelled peptides as substrate at 0.2 uM after 90 mins by microfluidic peptide phosphorylation assay
Chain of Tyrosine-protein kinase HCK (Homo sapiens) (P08631 2-526 limits assumed): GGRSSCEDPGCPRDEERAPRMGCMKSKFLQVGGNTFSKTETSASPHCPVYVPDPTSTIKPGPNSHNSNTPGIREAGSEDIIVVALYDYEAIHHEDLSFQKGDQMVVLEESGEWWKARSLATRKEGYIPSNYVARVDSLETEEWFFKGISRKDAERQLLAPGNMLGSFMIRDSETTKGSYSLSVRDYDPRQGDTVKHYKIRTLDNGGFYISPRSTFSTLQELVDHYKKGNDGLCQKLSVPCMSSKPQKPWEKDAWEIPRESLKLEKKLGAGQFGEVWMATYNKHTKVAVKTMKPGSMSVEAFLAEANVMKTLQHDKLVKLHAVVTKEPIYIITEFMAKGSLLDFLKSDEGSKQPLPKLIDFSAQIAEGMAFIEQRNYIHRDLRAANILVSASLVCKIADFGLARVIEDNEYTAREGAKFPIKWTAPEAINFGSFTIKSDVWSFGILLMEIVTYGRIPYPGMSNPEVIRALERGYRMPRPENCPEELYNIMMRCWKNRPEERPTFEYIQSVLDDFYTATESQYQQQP

[5] = biological target: MAP kinase p38 (Homo sapiens) (UniProt O15264+Q15759+Q16539+P53778); test: Inhibition of human full length p38 beta2 expressed in Escherichia coli cell assessed as substrate phosphorylation using fluorescence-labelled peptides as substrate at […] after 90 mins by microfluidic peptide phosphorylation assay
[6] = biological target: Protein kinase C gamma type (Homo sapiens) (UniProt P05129); test: Inhibition of human truncated PKC gamma expressed in baculovirus assessed as substrate phosphorylation using fluorescence-labelled peptides as substrate at 0.1 uM after 90 mins by microfluidic peptide phosphorylation assay
[7] = biological target: T4, Aurora kinase A (Homo sapiens) (UniProt O14965); test: Inhibition of human full length AurA expressed in baculovirus assessed as substrate phosphorylation using fluorescence-labelled peptides as substrate at 8 uM after 90 mins by microfluidic peptide phosphorylation assay
T4 sequence (whole entry): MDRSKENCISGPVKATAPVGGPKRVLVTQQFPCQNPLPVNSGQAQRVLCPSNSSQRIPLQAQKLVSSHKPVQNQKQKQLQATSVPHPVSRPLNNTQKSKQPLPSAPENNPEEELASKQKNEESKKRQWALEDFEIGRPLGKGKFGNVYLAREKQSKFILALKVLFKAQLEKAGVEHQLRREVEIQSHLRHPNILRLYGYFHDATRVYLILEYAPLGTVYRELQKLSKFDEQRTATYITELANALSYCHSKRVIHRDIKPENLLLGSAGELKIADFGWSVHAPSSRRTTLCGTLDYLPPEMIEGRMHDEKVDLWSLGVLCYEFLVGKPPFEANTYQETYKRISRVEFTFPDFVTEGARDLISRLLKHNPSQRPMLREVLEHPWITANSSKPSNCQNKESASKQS

[8] = species on record: Homo sapiens; test: Inhibition of human full length PKA expressed in baculovirus assessed as substrate phosphorylation using fluorescence-labelled peptides as substrate at 8 uM after 90 mins by microfluidic peptide phosphorylation assay
[9] = biological target: T1, Mitogen-activated protein kinase 12 (Homo sapiens); test: Inhibition of human full length p38 gamma expressed in Escherichia coli cell assessed as substrate phosphorylation using fluorescence-labelled peptides as substrate at 1000 uM after 90 mins by microfluidic peptide phosphorylation assay
[10] = tested on: Fibroblast growth factor receptor 2 (Homo sapiens), P21802 [N549H]; test: Inhibition of human FGFR2 N549H mutant catalytic domain expressed in baculovirus assessed as substrate phosphorylation using fluorescence-labelled peptides as substrate at 1000 uM after 90 mins by microfluidic peptide phosphorylation assay
Chain of Fibroblast growth factor receptor 2 (Homo sapiens), P21802 [N549H] (P21802 whole entry N549H, the tested form may be a part): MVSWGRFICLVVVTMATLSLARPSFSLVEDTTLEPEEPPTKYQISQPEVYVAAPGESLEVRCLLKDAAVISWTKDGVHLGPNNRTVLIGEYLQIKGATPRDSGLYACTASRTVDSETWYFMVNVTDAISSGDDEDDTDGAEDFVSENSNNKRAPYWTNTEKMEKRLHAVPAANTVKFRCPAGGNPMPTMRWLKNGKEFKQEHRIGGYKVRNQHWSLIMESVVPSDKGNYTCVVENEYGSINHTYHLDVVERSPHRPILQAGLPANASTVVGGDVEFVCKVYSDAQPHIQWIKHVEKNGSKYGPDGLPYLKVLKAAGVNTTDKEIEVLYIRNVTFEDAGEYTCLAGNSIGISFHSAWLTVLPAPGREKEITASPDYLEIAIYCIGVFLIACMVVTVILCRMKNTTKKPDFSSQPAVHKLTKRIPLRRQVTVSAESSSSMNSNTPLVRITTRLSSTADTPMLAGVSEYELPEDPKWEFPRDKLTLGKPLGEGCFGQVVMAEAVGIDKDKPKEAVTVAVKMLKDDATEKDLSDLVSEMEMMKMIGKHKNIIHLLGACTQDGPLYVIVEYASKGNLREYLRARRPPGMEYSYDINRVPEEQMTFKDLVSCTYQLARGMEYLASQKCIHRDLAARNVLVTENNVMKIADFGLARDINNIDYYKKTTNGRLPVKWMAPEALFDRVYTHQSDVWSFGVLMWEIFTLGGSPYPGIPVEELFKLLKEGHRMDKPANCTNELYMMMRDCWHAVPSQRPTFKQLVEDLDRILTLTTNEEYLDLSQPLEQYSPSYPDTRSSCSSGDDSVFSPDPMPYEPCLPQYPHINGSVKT

[11] = biological target: Serine/threonine-protein kinase PAK 2 (Homo sapiens) (UniProt Q13177); test: Inhibition of human truncated PAK2 expressed in Escherichia coli cell assessed as substrate phosphorylation using fluorescence-labelled peptides as substrate at 1000 uM after 90 mins by microfluidic peptide phosphorylation assay
Chain of Serine/threonine-protein kinase PAK 2 (Homo sapiens) (Q13177 whole entry, the tested form may be a part): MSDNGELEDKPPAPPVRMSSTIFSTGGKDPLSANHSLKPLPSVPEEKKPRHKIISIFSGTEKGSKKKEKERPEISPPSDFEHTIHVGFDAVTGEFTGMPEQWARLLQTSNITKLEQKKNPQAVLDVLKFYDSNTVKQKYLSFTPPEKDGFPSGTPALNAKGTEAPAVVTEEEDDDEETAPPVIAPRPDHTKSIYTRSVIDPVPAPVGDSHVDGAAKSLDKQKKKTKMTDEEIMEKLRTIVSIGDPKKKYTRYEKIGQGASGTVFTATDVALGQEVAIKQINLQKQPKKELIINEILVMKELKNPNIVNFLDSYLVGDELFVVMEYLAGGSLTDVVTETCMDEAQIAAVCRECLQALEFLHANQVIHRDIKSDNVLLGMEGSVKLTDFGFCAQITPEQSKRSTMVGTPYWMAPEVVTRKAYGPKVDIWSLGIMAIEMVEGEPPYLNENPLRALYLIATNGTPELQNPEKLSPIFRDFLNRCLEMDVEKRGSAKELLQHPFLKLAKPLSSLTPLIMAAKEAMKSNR

## c1nc(N2CCOCC2)c2nc[nH]c2n1
[1]
  inhibition: 41.5%
[2]
  inhibition: 95.5%

## Clc1ccc(C2(c3ccc(-c4ncnc5[nH]cnc45)cc3)CCNCC2)cc1
[3]
  inhibition: 41%
[4]
  inhibition: 35%

## COC(=O)c1cnc(Nc2cnc(C#N)cn2)cc1NCC1CCNCC1
[5]
  inhibition: 1%

## C[C@H](CN(C)C)Oc1nc(Nc2cc3cccc(Cl)c3cn2)cnc1C#N
[6]
  inhibition: 6%

## NCC1CCN(c2ncnc3[nH]ccc23)CC1
[7]
  inhibition: 87.5%
[8]
  inhibition: 29.5%

## c1cnc2[nH]ccc2c1
[9]
  inhibition: 64%
[10]
  inhibition: 42%
[11]
  inhibition: 13.5%
